How the values were obtained:
[1] = tested on: Botrytis cinerea (ATCC 90479); assay: Adjuvancy: growth inhibition of Botrytis cinerea on agar with fungicide and/or adjuvant (colony diameter); assay type: cell-based; conditions: for Fold Change in Growth Inhibition: 48 h, 22° C.; for inherent fungicidal activity on their own: adjuvant alone, any of the concentrations tested; for fungicidal activity compared to dimethomorph, prothioconazole, mancozeb, metalaxyl and pyrimethanil alone: in words, adjuvant plus fungicide
[2] = tested on: African green monkey Vero kidney cells (ATCC CCL-81); assay: Cytotoxicity against Vero cells (alamarBlue); assay type: cell-based; conditions: highest concentration tested (128 μg/mL); 24 hours
Description: The cytotoxicity of the phenylspirodrimanes and stachybocin A was assessed in vitro against African green monkey Vero kidney cells (ATCC CCL-81). Cells were cultured in 15 mL of Eagle's minimal essential medium (Sigma) supplemented with 10% (v/v) fetal bovine serum (VWR), […] and 0.1 mg/mL streptomycin in T75 cm^2 cell culture flasks. Cells were incubated for 24 hours at 37° C. in a humidified atmosphere of 5% CO2. Culture medium was refreshed every 2-3 days and cells were not allowed to exceed 80% confluency.
At 80% confluency the cells were counted, diluted and plated into 96 well flat bottom cell culture plates (Corning) at a cell density of 10,000 cells per well in 90 μL of growth medium. The plates were incubated at 37° C. in a humidified atmosphere of 5% CO2 for 24 hours to allow cells to adhere to the plate before treatment. […]
The plates were incubated at 37° C. in a humidified atmosphere of 5% C02 for 24 hours after which alamarBlue (Invitrogen) was added to each well at 10% of the culture volume. Fluorescence was monitored using a Thermo Scientific Varioskan Flash plate reader at 560/12 excitation, 590 nm emission both at time zero and 4 hrs after alamarBlue addition. After subtracting the time zero emission 590 nm measurement from the final reading, the inferred percentage of cell viability relative to the vehicle control wells was calculated.

[3] = adjuvant 12.5 μg/mL + pyraclostrobin 0.1 μg/mL vs pyraclostrobin alone
[4] = adjuvant 12.5 μg/mL + pyraclostrobin 0.2 μg/mL vs pyraclostrobin alone
[5] = adjuvant 12.5 μg/mL + pyraclostrobin 0.4 μg/mL vs pyraclostrobin alone
[6] = adjuvant 12.5 μg/mL + pyraclostrobin 0.8 μg/mL vs pyraclostrobin alone
[7] = adjuvant 12.5 μg/mL + tebuconazole 0.05 μg/mL vs tebuconazole alone
[8] = adjuvant 12.5 μg/mL + tebuconazole 0.10 μg/mL vs tebuconazole alone
[9] = adjuvant 12.5 μg/mL + tebuconazole 0.19 μg/mL vs tebuconazole alone
[10] = adjuvant 12.5 μg/mL + tebuconazole 0.38 μg/mL vs tebuconazole alone
[11] = adjuvant 25 μg/mL + pyraclostrobin 0.1 μg/mL vs pyraclostrobin alone
[12] = adjuvant 25 μg/mL + pyraclostrobin 0.2 μg/mL vs pyraclostrobin alone
[13] = adjuvant 25 μg/mL + pyraclostrobin 0.4 μg/mL vs pyraclostrobin alone
[14] = adjuvant 25 μg/mL + pyraclostrobin 0.8 μg/mL vs pyraclostrobin alone
[15] = adjuvant 25 μg/mL + tebuconazole 0.05 μg/mL vs tebuconazole alone
[16] = adjuvant 25 μg/mL + tebuconazole 0.10 μg/mL vs tebuconazole alone
[17] = adjuvant 25 μg/mL + tebuconazole 0.19 μg/mL vs tebuconazole alone
[18] = adjuvant 25 μg/mL + tebuconazole 0.38 μg/mL vs tebuconazole alone
[19] = adjuvant 50 μg/mL + pyraclostrobin 0.1 μg/mL vs pyraclostrobin alone
[20] = adjuvant 50 μg/mL + pyraclostrobin 0.2 μg/mL vs pyraclostrobin alone
[21] = adjuvant 50 μg/mL + pyraclostrobin 0.4 μg/mL vs pyraclostrobin alone
[22] = adjuvant 50 μg/mL + pyraclostrobin 0.8 μg/mL vs pyraclostrobin alone
[23] = adjuvant 50 μg/mL + tebuconazole 0.05 μg/mL vs tebuconazole alone
[24] = adjuvant 50 μg/mL + tebuconazole 0.10 μg/mL vs tebuconazole alone
[25] = adjuvant 50 μg/mL + tebuconazole 0.19 μg/mL vs tebuconazole alone
[26] = adjuvant 50 μg/mL + tebuconazole 0.38 μg/mL vs tebuconazole alone

Structure (SMILES)	Fold Change in Growth Inhibition [1, 3]	Fold Change in Growth Inhibition [1, 4]	Fold Change in Growth Inhibition [1, 5]	Fold Change in Growth Inhibition [1, 6]	Fold Change in Growth Inhibition [1, 7]	Fold Change in Growth Inhibition [1, 8]	Fold Change in Growth Inhibition [1, 9]	Fold Change in Growth Inhibition [1, 10]	Fold Change in Growth Inhibition [1, 11]	Fold Change in Growth Inhibition [1, 12]	Fold Change in Growth Inhibition [1, 13]	Fold Change in Growth Inhibition [1, 14]	Fold Change in Growth Inhibition [1, 15]	Fold Change in Growth Inhibition [1, 16]	Fold Change in Growth Inhibition [1, 17]	Fold Change in Growth Inhibition [1, 18]	Fold Change in Growth Inhibition [1, 19]	Fold Change in Growth Inhibition [1, 20]	Fold Change in Growth Inhibition [1, 21]	Fold Change in Growth Inhibition [1, 22]	other results
CC1CCC2C(C)(C)C(O)CCC2(C)C12Cc1c(O)cc3c(c1O2)CN(C(Cc1ccccc1)C(=O)O)C3=O (stereo not drawn) [Phe (Ib), phenylspirodrimane (Ib)]	3.59	1.11	1.47	1.55	22.22	2.83	2.17	1.03	4.25	1.56	1.08	1.19	7.94	1.67	1.83	1.00	17.87	1.67	1.62	1.57	Fold Change in Growth Inhibition [1, 23]: 14.29; Fold Change in Growth Inhibition [1, 24]: 4.33; Fold Change in Growth Inhibition [1, 25]: 2.36; Fold Change in Growth Inhibition [1, 26]: 1.00; inherent fungicidal activity on their own [1]: did not demonstrate any inherent fungicidal activity; fungicidal activity compared to dimethomorph, prothioconazole, mancozeb, metalaxyl and pyrimethanil alone [1]: showed increased fungicidal activity; cytotoxicity against Vero cells [2]: did not exhibit any cytotoxicity
CC1CCC2C(C)(C)C(O)CCC2(C)C12Cc1c(O)cc3c(c1O2)CN(CCCCC(C(=O)O)N1Cc2c(cc(O)c4c2OC2(C4)C(C)CCC4C(C)(C)C(O)CCC42C)C1=O)C3=O (stereo not drawn) [Sta A (IIa), stachybocin A]	2.92	1.00	1.00	1.00	12.70	2.83	2.36	1.00	2.92	1.00	1.00	1.00	14.29	2.67	1.81	1.00	2.25	1.00	1.47	1.08	Fold Change in Growth Inhibition [1, 23]: 12.70; Fold Change in Growth Inhibition [1, 24]: 2.17; Fold Change in Growth Inhibition [1, 25]: 1.36; Fold Change in Growth Inhibition [1, 26]: 1.00; inherent fungicidal activity on their own [1]: did not demonstrate any inherent fungicidal activity; fungicidal activity compared to dimethomorph, prothioconazole, mancozeb, metalaxyl and pyrimethanil alone [1]: showed increased fungicidal activity; cytotoxicity against Vero cells [2]: did not exhibit any cytotoxicity
